According to US10961200B2, “Small molecule inhibitors of lactate dehydrogenase and methods of use thereof” (THE UNITED STATES OF AMERICA, AS REPRESENTED BY THE …, priority 2014, dated 2021):

Each compound was assayed against Human LDHA (Homo sapiens (Human), UniProt P00338) (assay: human LDHA primary biochemical assay (resazurin/diaphorase coupled, fluorescence)). Details: LDHA inhibitory activity, assay of Example 1; activity level classes.
Source text: Test compounds were placed in a Greiner Bio-One (Monroe, N.C.) 1536-well black solid bottom assay plate. 200 millimolar (mM) Tris HCl, pH 7.4, 100 micromolar […] EDTA and 0.01% TWEEN-20™, final concentration, was used as the assay buffer. The LDHA reagent was 2 nanomolar (nM) Human LDHA (Meridian Life Science, Inc., Memphis, Tenn.), final concentration, in assay buffer.

`O=C(O)c1csc(-n2nc(-c3ccc(F)c(F)c3)cc2C(=O)O)n1` [Compound 71, 2-(5-carboxy-3-(3,4-difluorophenyl)-1H-pyrazol-1-yl)thiazole-4-carboxylic acid] and `CS(=O)(=O)c1cc(-c2cc(O)n(-c3nc(C(=O)O)cs3)n2)ccc1F` [Compound 94, 2-(3-(4-fluoro-3-(methylsulfonyl)phenyl)-5-hydroxy-1H-pyrazol-1-yl)thiazole-4-carboxylic acid] cannot be ordered by IC50: over 57 µM for the first, over 57 µM for the second.

First: NS(=O)(=O)c1ccc(Cc2c(-c3cccc4ccccc34)nn(-c3nc(C(=O)O)cs3)c2O)cc1 [Compound 81, 2-(5-hydroxy-3-(naphthalen-1-yl)-4-(4-sulfamoylbenzyl)-1H-pyrazol-1-yl)thiazole-4-carboxylic acid]
Second: NS(=O)(=O)c1ccc(Cc2c(-c3cccc4cc(F)ccc34)nn(-c3nc(C(=O)O)cs3)c2O)cc1 [Compound 89, 2-(3-(6-fluoronaphthalen-1-yl)-5-hydroxy-4-(4-sulfamoylbenzyl)-1H-pyrazol-1-yl)thiazole-4-carboxylic acid]
The IC50 of the first is lower: 1 to 57 µM for the first, over 57 µM for the second. The first is the more potent here.

First: NS(=O)(=O)c1ccc(Cc2c(-c3cccnc3)nn(-c3nc(C(=O)O)cs3)c2O)cc1 [Compound 82, 2-(5-hydroxy-3-(pyridin-3-yl)-4-(4-sulfamoylbenzyl)-1H-pyrazol-1-yl)thiazole-4-carboxylic acid]
Second: CS(=O)(=O)c1cccc(-c2cc(O)n(-c3nc(C(=O)O)cs3)n2)c1 [Compound 92, 2-(5-hydroxy-3-(3-(methylsulfonyl)phenyl)-1H-pyrazol-1-yl)thiazole-4-carboxylic acid]
The IC50 of the first is lower: 1 to 57 µM for the first, over 57 µM for the second. The first is the more potent here.

`O=C(O)c1csc(-n2nc(-c3cccc(N4CCOCC4)c3)cc2O)n1` [Compound 93, 2-(5-hydroxy-3-(3-morpholinophenyl)-1H-pyrazol-1-yl)thiazole-4-carboxylic acid] and `O=C(O)c1csc(-n2nc(-c3cccc(F)c3F)cc2O)n1` [Compound 96, 2-(3-(2,3-difluorophenyl)-5-hydroxy-1H-pyrazol-1-yl)thiazole-4-carboxylic acid] cannot be ordered by IC50: over 57 µM for the first, over 57 µM for the second.

`O=C(O)c1csc(-n2nc(-c3cc(F)cc(F)c3)cc2O)n1` [Compound 95, 2-(3-(3,5-difluorophenyl)-5-hydroxy-1H-pyrazol-1-yl)thiazole-4-carboxylic acid] was tested, and the IC50 was over 57 µM.

Same assay, conditions: read-out: Inhibitory activity IC50

Compared with `NC(=O)c1csc(-n2nc(-c3cccc(-c4ccccc4)c3)c(Cc3ccc(S(N)(=O)=O)cc3)c2O)n1` [Compound 70, 2-(3-([1,1′-biphenyl]-3-yl)-5-hydroxy-4-(4-sulfamoylbenzyl)-1H-pyrazol-1-yl)thiazole-4-carboxamide], `CCOC(=O)c1csc(-n2nc(-c3cccc(-c4ccccc4)c3)c(Cc3ccc(S(N)(=O)=O)cc3)c2O)n1` [Compound 73, ethyl 2-(3-([1,1′-biphenyl]-3-yl)-5-hydroxy-4-(4-sulfamoylbenzyl)-1H-pyrazol-1-yl)thiazole-4-carboxylate] is lower in IC50: over 57 µM for the first, 1 to 57 µM for the second.

`NS(=O)(=O)c1ccc(Cc2c(-c3cccc(-c4ccccc4)c3)nn(-c3nc(-c4nnn[nH]4)cs3)c2O)cc1` [Compound 72, 4-((1-(4-(1H-tetrazol-5-yl)thiazol-2-yl)-3-([1,1′-biphenyl]-3-yl)-5-hydroxy-1H-pyrazol-4-yl)methyl)benzenesulfonamide] and `NS(=O)(=O)c1ccc(Cc2c(-c3ccccc3)nn(-c3nc(C(=O)O)cs3)c2Cc2nnn[nH]2)cc1` [Compound 87, 2-(5-((1H-tetrazol-5-yl)methyl)-3-phenyl-4-(4-sulfamoylbenzyl)-1H-pyrazol-1-yl)thiazole-4-carboxylic acid] fall in the same range of IC50: 1 to 57 µM for the first, 1 to 57 µM for the second.

`N#CCc1cc(-c2ccc(F)c(F)c2)nn1-c1nc(C(=O)O)cs1` [Compound 74, 2-(5-(cyanomethyl)-3-(3,4-difluorophenyl)-1H-pyrazol-1-yl)thiazole-4-carboxylic acid] and `O=C(O)c1csc(-n2nc(-c3ccc(F)c(F)c3)cc2Cc2nnn[nH]2)n1` [Compound 75, 2-(5-((1H-tetrazol-5-yl)methyl)-3-(3,4-difluorophenyl)-1H-pyrazol-1-yl)thiazole-4-carboxylic acid] fall in the same range of IC50: 1 to 57 µM for the first, 1 to 57 µM for the second.

`NS(=O)(=O)c1ccc(-c2cn(-c3nc(C(=O)O)cs3)nc2-c2ccccc2)cc1` [Compound 76, 2-(3-phenyl-4-(4-sulfamoylphenyl)-1H-pyrazol-1-yl)thiazole-4-carboxylic acid] and `NC(=O)c1csc(-n2cc(Cc3ccc(S(N)(=O)=O)cc3)c(-c3ccccc3)n2)n1` [Compound 79, 2-(3-phenyl-4-(4-sulfamoylbenzyl)-1H-pyrazol-1-yl)thiazole-4-carboxamide] fall in the same range of IC50: 1 to 57 µM for the first, 1 to 57 µM for the second.

`CCOC(=O)c1csc(-n2nc(-c3ccccc3)c(Cc3ccc(S(N)(=O)=O)cc3)c2C(F)(F)F)n1` [Compound 77, ethyl 2-(3-phenyl-4-(4-sulfamoylbenzyl)-5-(trifluoromethyl)-1H-pyrazol-1-yl)thiazole-4-carboxylate] and `NS(=O)(=O)c1ccc(Cc2c(-c3ccccc3)nn(-c3nc(CO)cs3)c2C(F)(F)F)cc1` [Compound 88, 4-((1-(4-(hydroxymethyl)thiazol-2-yl)-3-phenyl-5-(trifluoromethyl)-1H-pyrazol-4-yl)methyl)benzenesulfonamide] fall in the same range of IC50: 1 to 57 µM for the first, 1 to 57 µM for the second.

`NC(=O)c1csc(-n2nc(-c3ccccc3)c(Cc3ccc(S(N)(=O)=O)cc3)c2I)n1` [Compound 78, 2-(5-iodo-3-phenyl-4-(4-sulfamoylbenzyl)-1H-pyrazol-1-yl)thiazole-4-carboxamide] and `Cc1csc(-n2nc(-c3ccccc3)c(Cc3ccc(S(N)(=O)=O)cc3)c2N)n1` [Compound 86, 4-((5-amino-1-(4-methylthiazol-2-yl)-3-phenyl-1H-pyrazol-4-yl)methyl)benzenesulfonamide] fall in the same range of IC50: 1 to 57 µM for the first, 1 to 57 µM for the second.

`NS(=O)(=O)c1ccc(Cc2c(-c3ccccc3)nn(-c3nc(C(=O)O)cs3)c2Nc2cccnc2)cc1` [Compound 80, 2-(3-phenyl-5-(pyridin-3-ylamino)-4-(4-sulfamoylbenzyl)-1H-pyrazol-1-yl)thiazole-4-carboxylic acid] and `Cc1cccc(C(=O)n2nc(-c3ccccc3)c(Cc3ccc(S(N)(=O)=O)cc3)c2N)c1` [Compound 84, 4-((5-amino-1-(3-methylbenzoyl)-3-phenyl-1H-pyrazol-4-yl)methyl)benzenesulfonamide] fall in the same range of IC50: 1 to 57 µM for the first, 1 to 57 µM for the second.

`Nc1c(Cc2ccc(S(N)(=O)=O)cc2)c(-c2ccccc2)nn1-c1ccc(Cl)nn1` [Compound 83, 4-((5-amino-1-(6-chloropyridazin-3-yl)-3-phenyl-1H-pyrazol-4-yl)methyl)benzenesulfonamide] and `Nc1c(Cc2ccc(S(N)(=O)=O)cc2)c(-c2ccccc2)nn1C(=O)c1cccc(F)c1` [Compound 85, 4-((5-amino-1-(3-fluorobenzoyl)-3-phenyl-1H-pyrazol-4-yl)methyl)benzenesulfonamide] fall in the same range of IC50: 1 to 57 µM for the first, 1 to 57 µM for the second.

First: NS(=O)(=O)N1CCN(Cc2cn(-c3nc(C(=O)O)cs3)nc2-c2ccccc2)CC1 [Compound 90, 2-(3-phenyl-4-((4-sulfamoylpiperazin-1-yl)methyl)-1H-pyrazol-1-yl)thiazole-4-carboxylic acid]
Second: O=C(O)c1csc(-n2nc(-c3ccccc3)cc2O)n1 [Compound 91, 2-(5-hydroxy-3-phenyl-1H-pyrazol-1-yl)thiazole-4-carboxylic acid]
The IC50 of the first is lower: 1 to 57 µM for the first, over 57 µM for the second. The first is the more potent here.
